Measured values as given in ChEMBL document CHEMBL5543155, “Design, Synthesis, and Biological Evaluation of β-Trifluoroethoxydimethyl Selenides as Potent Antiosteoporosis Agents” (J Med Chem, 2024).
Active and inactive are the calls of the source. No cut-off for these calls is given here.

What was measured:
[1] = test system: RAW264.7; experiment: Cytotoxicity against mouse RAW264.7 cells assessed as cell destruction at 5 uM incubated for 48 hrs by MTT assay; format: toxicity, cell-based; settings: raw264.7, 48 h
[2] = test system: RAW264.7; experiment: Inhibition of RANKL-induced osteoclast differentiation in mouse RAW264.7 cells at 5 uM incubated for 4 days with media replacement for every 2 days by TRAP-staining based light microscopic analysis; format: functional, cell-based; settings: time 4.0 day

## CC(C)(OCC(F)(F)F)C([Se]c1ccccc1)C(=O)Nc1cccc(Cl)c1 (configuration not stated)
[1]
  Activity: Non-Toxic
[2]
  inhibition: Active

## CC(C)(OCC(F)(F)F)C([Se]c1ccc(F)cc1)C(=O)Nc1ccccc1 (configuration not stated)
[1]
  Activity: Non-Toxic
[2]
  inhibition: Active

## CC(C)(OCC(F)(F)F)C([Se]c1ccccc1)C(=O)NC1CCCCC1 (configuration not stated)
[1]
  Activity: Non-Toxic
[2]
  inhibition: Active

## CC(C)(OCC(F)(F)F)C([Se]c1ccccc1)C(=O)Nc1ccnc(Cl)c1 (configuration not stated)
[1]
  Activity: Non-Toxic

## CC(C)(OCC(F)(F)F)C([Se]c1ccccc1F)C(=O)Nc1ccccc1 (configuration not stated)
[1]
  Activity: Non-Toxic
[2]
  inhibition: Active

## Cc1ccc([Se]C(C(=O)Nc2ccccc2)C(C)(C)OCC(F)(F)F)cc1 (configuration not stated)
[1]
  Activity: Non-Toxic
[2]
  inhibition: Active

## CC(C)(OCC(F)(F)F)C([Se]c1ccccc1)C(=O)Nc1cccnc1 (configuration not stated)
[1]
  Activity: Non-Toxic

## CC(C)(OCC(F)(F)F)C([Se]c1ccccc1)C(=O)Nc1ccnc(F)c1 (configuration not stated)
[1]
  Activity: Non-Toxic

## CCOC(C)(C)C([Se]c1ccccc1)C(=O)Nc1ccccc1 (configuration not stated)
[1]
  Activity: Non-Toxic

## COc1ccccc1[Se]C(C(=O)Nc1ccccc1)C(C)(C)OCC(F)(F)F (configuration not stated)
[1]
  Activity: Non-Toxic
[2]
  inhibition: Active

## CC(C)(OCC(F)(F)F)C([Se]c1cccc(F)c1)C(=O)Nc1ccccc1 (configuration not stated)
[1]
  Activity: Non-Toxic
[2]
  inhibition: Active

## CC(C)(OCC(F)(F)F)C([Se]c1ccccc1)C(=O)Nc1ccc(I)cc1 (configuration not stated)
[1]
  Activity: Non-Toxic
[2]
  inhibition: Active

## CC(C)(OCC(F)(F)F)C([Se]c1ccc2c(c1)OCO2)C(=O)Nc1ccccc1 (configuration not stated)
[1]
  Activity: Non-Toxic
[2]
  inhibition: Active

## CC(C)(OCC(F)(F)F)C([Se]c1ccc(F)cc1)C(=O)Nc1ccncc1 (configuration not stated)
[1]
  Activity: Non-Toxic

## Cc1ccccc1[Se]C(C(=O)Nc1ccccc1)C(C)(C)OCC(F)(F)F (configuration not stated)
[1]
  Activity: Non-Toxic

## COc1cc(NC(=O)C([Se]c2ccccc2)C(C)(C)OCC(F)(F)F)ccn1 (configuration not stated)
[1]
  Activity: Non-Toxic

## COc1ccc([Se]C(C(=O)Nc2ccncc2)C(C)(C)OCC(F)(F)F)cc1 (configuration not stated)
[1]
  Activity: Non-Toxic

## CCCC[Se]C(C(=O)Nc1ccccc1)C(C)(C)OCC(F)(F)F (configuration not stated)
[1]
  Activity: Non-Toxic
[2]
  inhibition: Active

## CC(C)(OCC(F)(F)F)C([Se]c1ccccc1)C(=O)Nc1ccnc(Br)c1 (configuration not stated)
[1]
  Activity: Non-Toxic

## Cc1cccc([Se]C(C(=O)Nc2ccccc2)C(C)(C)OCC(F)(F)F)c1 (configuration not stated)
[1]
  Activity: Non-Toxic
[2]
  inhibition: Active

## CC(C)(OCC(F)(F)F)C([Se]c1ccccc1Br)C(=O)Nc1ccccc1 (configuration not stated)
[1]
  Activity: Non-Toxic
[2]
  inhibition: Active

## CC(C)(OCC(F)(F)F)C([Se]c1ccccc1)C(=O)Nc1cccc(F)c1 (configuration not stated)
[1]
  Activity: Non-Toxic
[2]
  inhibition: Active

## COc1ccccc1NC(=O)C([Se]c1ccccc1)C(C)(C)OCC(F)(F)F (configuration not stated)
[1]
  Activity: Non-Toxic
[2]
  inhibition: Active

## CC(C)(OCC(F)(F)F)C([Se]c1ccccc1)C(=O)Nc1ccc(Br)cc1 (configuration not stated)
[1]
  Activity: Non-Toxic
[2]
  inhibition: Active

## CC(C)(OCC(F)(F)F)C([Se]c1ccccc1)C(=O)Nc1ccccc1F (configuration not stated)
[1]
  Activity: Non-Toxic

## COc1ncccc1[Se]C(C(=O)Nc1ccccc1)C(C)(C)OCC(F)(F)F (configuration not stated)
[1]
  Activity: Non-Toxic
[2]
  inhibition: Active

## COc1ccc(NC(=O)C([Se]c2ccccc2)C(C)(C)OCC(F)(F)F)cc1 (configuration not stated)
[1]
  Activity: Non-Toxic
[2]
  inhibition: Active

## CC(C)(OCC(F)(F)F)C([Se]c1ccc(Br)cc1)C(=O)Nc1ccccc1 (configuration not stated)
[1]
  Activity: Non-Toxic
[2]
  inhibition: Active

## COc1ccc([Se]C(C(=O)Nc2ccccc2)C(C)(C)OCC(F)(F)F)cc1 (configuration not stated)
[1]
  Activity: Non-Toxic
[2]
  inhibition: Active

## CC(C)(OCC(F)(F)F)C([Se]c1cccc(Br)c1)C(=O)Nc1ccccc1 (configuration not stated)
[1]
  Activity: Non-Toxic
[2]
  inhibition: Active

## CC(C)(OCC(F)(F)F)C([Se]c1ccccc1)C(=O)Nc1cnc2ccccc2c1 (configuration not stated)
[1]
  Activity: Non-Toxic
[2]
  inhibition: Active

## CC(C)(OCC(F)(F)F)C([Se]c1ccccc1)C(=O)Nc1ccccn1 (configuration not stated)
[1]
  Activity: Non-Toxic

## CC(C)(OCC(F)(F)F)C([Se]c1ccccc1)C(=O)Nc1ccccc1 (configuration not stated)
[1]
  Activity: Non-Toxic

## CC(C)(OCC(F)(F)F)C([Se]c1ccccc1Cl)C(=O)Nc1ccccc1 (configuration not stated)
[1]
  Activity: Non-Toxic
[2]
  inhibition: Active

## Cc1cc(NC(=O)C([Se]c2ccccc2)C(C)(C)OCC(F)(F)F)ccn1 (configuration not stated)
[1]
  Activity: Non-Toxic

## Cc1cc(Cl)ccc1NC(=O)C([Se]c1ccccc1)C(C)(C)OCC(F)(F)F (configuration not stated)
[1]
  Activity: Non-Toxic
[2]
  inhibition: Active

## Cc1ccccc1NC(=O)C([Se]c1ccccc1)C(C)(C)OCC(F)(F)F (configuration not stated)
[1]
  Activity: Non-Toxic
[2]
  inhibition: Active

## Cc1cnccc1NC(=O)C([Se]c1ccccc1)C(C)(C)OCC(F)(F)F (configuration not stated)
[1]
  Activity: Non-Toxic
